Results reported in patent US20080311126A1, “Antisense Oligonucleotides Directed to Ribonucleotide Reducatase R2 and Uses Thereof in Combination Therapies for the Treatment of Cancer” (Genesense Technologies, Inc, priority 2004, published 2008).
Oligonucleotides are written 5' to 3', each unit as a sugar letter and its base; * is a phosphorothioate linkage, no mark a phosphodiester; rarer units and linkages stand in square brackets, end groups in braces. Plain capitals give the bases only. d = 2'-deoxy (DNA)

Assays:
Assay in all cases: Relative colony forming efficiency (Example 17, Table 13)
Type in all cases: cell-based, human
[1] = test system: A549 lung cell carcinoma; conditions: averages of 2-8 determinations
Experimental: (§1) Colony forming efficiency was determined using standard protocols. […] The test oligonucleotides were added to cell cultures in the presence of 2.5 μg of DOTMA/DOPE (Lipofectin; Life Technologies, Inc.) for four hours. The oligonucleotide was tested at 0.2 μM unless otherwise indicated. Controls were the cultures treated with lipofectin but without the oligonucleotide. […] Surviving cells were visualized by methylene blue staining, and colonies were scored. In some experiments cell aliquots were removed from the culture and viability was determined using the trypan blue exclusion test. Results were analyzed as percent of surviving cells compared to control cells. To test the antisense effects of many of these sequences as phosphorthioate deoxyribonucleotides, they were examined in relative colony forming experiments conducted as described in Example 16 with a series of human tumour cell lines. The results (shown as % inhibition of colony forming ability) obtained with cancer cells derived from the bladder, breast, lung, colon, pancreas, prostate, liver and cervix, are shown in Table 13. The specific cell lines employed are as follows: […]

[2] = test system: HCT116 colon cell carcinoma; conditions: averages of 2-8 determinations
Experimental: as §1

[3] = test system: HepG2 hepatocellular carcinoma; conditions: averages of 2-8 determinations
Experimental: as §1

[4] = test system: MDA PaCa-2 pancreatic cell carcinoma; conditions: MIA PaCa-2 pancreatic cell carcinoma; averages of 2-8 determinations
Experimental: as §1

[5] = test system: MDA-MB-231 breast cell adenocarcinoma; conditions: averages of 2-8 determinations
Experimental: as §1

[6] = test system: PC-3 prostrate cell adenocarcinoma; conditions: averages of 2-8 determinations
Experimental: as §1

[7] = test system: T24 bladder cell carcinoma; conditions: averages of 2-8 determinations
Experimental: as §1

Substance	Reduced relative colony forming efficiency, A549 (% inhibition of colony forming ability) [1]	Reduced relative colony forming efficiency, HCT116 (% inhibition of colony forming ability) [2]	Reduced relative colony forming efficiency, HepG2 (% inhibition of colony forming ability) [3]	Reduced relative colony forming efficiency, MIA PaCa-2 (% inhibition of colony forming ability) [4]	Reduced relative colony forming efficiency, MDA-MB-231 (% inhibition of colony forming ability) [5]	Reduced relative colony forming efficiency, PC-3 (% inhibition of colony forming ability) [6]	Reduced relative colony forming efficiency, T24 (% inhibition of colony forming ability) [7]
GCCACAGGATAAAAACACAA (antisense dG*dC*dC*dA*dC*dA*dG*dG*dA*dT*dA*dA*dA*dA*dA*dC*dA*dC*dA*dA) [AS-II-2009-20]	93.32%	69.92%	96.99%	93.74%	96.25%	83.36%	61.84%
ACCCTTCCCATTGGCTGCGC (antisense dA*dC*dC*dC*dT*dT*dC*dC*dC*dA*dT*dT*dG*dG*dC*dT*dG*dC*dG*dC) [AS-II-6-20]			97.89%	95.15%	85.4%	59.21%	73.55%
CGGGTCCGTGATGGGCGCGA (antisense dC*dG*dG*dG*dT*dC*dC*dG*dT*dG*dA*dT*dG*dG*dG*dC*dG*dC*dG*dA) [AS-II-217-20]		61.85%	99.55%	87.38%	52.7%	87.41%	65.02%
CACACAACCTACTTACACCA (antisense dC*dA*dC*dA*dC*dA*dA*dC*dC*dT*dA*dC*dT*dT*dA*dC*dA*dC*dC*dA) [AS-II-2372-20]	96.41%	64.7%		94.36%	90.09%	86.06%	61.13%
TCAGGCAAGCAAAATCACAG (antisense dT*dC*dA*dG*dG*dC*dA*dA*dG*dC*dA*dA*dA*dA*dT*dC*dA*dC*dA*dG) [AS-II-1001-20]	71.36%	55.58%	90.36%	64.21%	82.17%	85.94%	86.11%
AS-II-218220 (antisense dC*dG*dT*dT*dG*dA*dG*dG*dA*dA*dA*dA*dT*dA*dC*dA*dG*dT*dG*dA)	90.97%	77.66%	95.48%	56.43%	84.95%	85.91%	67.76%
GCACATCTTCAGTTCATTTA (antisense dG*dC*dA*dC*dA*dT*dC*dT*dT*dC*dA*dG*dT*dT*dC*dA*dT*dT*dT*dA) [AS-II-1362-20]	83.9%	78.47%	80.41%	44.14%	70.22%	77.38%	
TTAGTGGTCAGGAGAATGTA (antisense dT*dT*dA*dG*dT*dG*dG*dT*dC*dA*dG*dG*dA*dG*dA*dA*dT*dG*dT*dA) [AS-II-1819-20]			83.89%	20.02%	90.68%	85.46%	53.74%
ATGGAAAAAAAAAATCAGCC (antisense dA*dT*dG*dG*dA*dA*dA*dA*dA*dA*dA*dA*dA*dA*dT*dC*dA*dG*dC*dC) [AS-II-1390-20]	88.31%	62.18%	90.21%	82.77%	66.89%	76.76%	61.13%
GCAAAGGCTACAACACGTTC (antisense dG*dC*dA*dA*dA*dG*dG*dC*dT*dA*dC*dA*dA*dC*dA*dC*dG*dT*dT*dC) [AS-II-861-20]	95.78%	74.2%	96.08%	97.3%	89.98%	87.33%	73.5%
GACATCACTCCCATCCTCTG (antisense dG*dA*dC*dA*dT*dC*dA*dC*dT*dC*dC*dC*dA*dT*dC*dC*dT*dC*dT*dG) [AS-II-1302-20]	93.17%	71.98%		23.86%	92.2%	79.01%	70.56%
GGGCACATCTTCAGTTCATT (antisense dG*dG*dG*dC*dA*dC*dA*dT*dC*dT*dT*dC*dA*dG*dT*dT*dC*dA*dT*dT) [AS-II-1364-20]	95.59%	77.29%		59.34%	93.87%	79.01%	66.59%
AAACGGCTTCTCACACATAT (antisense dA*dA*dA*dC*dG*dG*dC*dT*dT*dC*dT*dC*dA*dC*dA*dC*dA*dT*dA*dT) [AS-II-2151-20]	79.19%			62.15%	95.14%	84.86%	79.83%
TGCCTCCGACCCTTCCCATT (antisense dT*dG*dC*dC*dT*dC*dC*dG*dA*dC*dC*dC*dT*dT*dC*dC*dC*dA*dT*dT) [AS-II-14-20]			88.4%	47.93%	91.24%	92.76%	77.59%
TTCATGGTGTGGCTAGTTGG (antisense dT*dT*dC*dA*dT*dG*dG*dT*dG*dT*dG*dG*dC*dT*dA*dG*dT*dT*dG*dG) [AS-II-1438-20]	51.27%			42.13%	69.06%	83.96%	43.7%
CAGAATATCGACGCAAAAGA (dC*dA*dG*dA*dA*dT*dA*dT*dC*dG*dA*dC*dG*dC*dA*dA*dA*dA*dG*dA) [AS-II-909-20]	78.68%			46.13%	45.96%	84.86%	78.57%
